Reference: PubChem BioAssay (NCI)
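Tested at 5 concentrations; 48 h exposure; 96-well plates; endpoints linearly interpolated, else capped at highest concentration. GI50 = concentration required for 50% inhibition of growth. TGI denotes the concentration required for complete inhibition of growth.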

Columns and labels:
Test in all cases: DTP human tumour cell line panel, 48 h
[1] = tested on: OVCAR-8 ovarian
[2] = tested on: SNB-19 CNS
[3] = tested on: SR leukemia
[4] = tested on: OVCAR-4 ovarian
[5] = tested on: MDA-MB-231 breast
[6] = tested on: HCT-15 colon
[7] = tested on: SF-539 CNS
[8] = tested on: IGROV1 ovarian
[9] = tested on: U251 CNS
[10] = tested on: SK-MEL-5 melanoma
[11] = tested on: HL-60(TB) leukemia
[12] = tested on: NCI-H460 lung
[13] = tested on: SNB-75 CNS
[14] = tested on: HOP-62 NSCLC
[15] = tested on: BT-549 breast
[16] = tested on: HCT-116 colon
[17] = tested on: NCI/ADR-RES ovarian
[18] = tested on: OVCAR-3 ovarian
[19] = tested on: SN12C renal
[20] = tested on: SK-MEL-2 melanoma
[21] = tested on: HS 578T breast
[22] = tested on: SW-620 colon
[23] = tested on: NCI-H226 lung
[24] = tested on: TK-10 renal
[25] = tested on: COLO 205 colon
[26] = tested on: T-47D breast
[27] = tested on: DU-145 prostate
[28] = tested on: SK-MEL-28 melanoma
[29] = tested on: A549 NSCLC
[30] = tested on: MOLT-4 leukemia
[31] = tested on: NCI-H23 lung
[32] = tested on: MALME-3M melanoma
[33] = tested on: MDA-MB-435
[34] = tested on: M14 melanoma
[35] = tested on: NCI-H522 lung
[36] = tested on: ACHN renal
[37] = tested on: RPMI-8226 leukemia
[38] = tested on: HOP-92 NSCLC
[39] = tested on: SF-295 CNS
[40] = tested on: UACC-62 melanoma
[41] = tested on: SK-OV-3 ovarian
[42] = tested on: KM12 colon
[43] = tested on: HCC-2998 colon
[44] = tested on: UACC-257 melanoma
[45] = tested on: HT29 colon
[46] = tested on: MCF7 breast
[47] = tested on: EKVX NSCLC
[48] = tested on: A498 renal
[49] = tested on: CAKI-1 renal
[50] = tested on: CCRF-CEM leukemia
[51] = tested on: UO-31 renal
[52] = tested on: RXF 393 renal
[53] = tested on: SF-268 CNS
[54] = tested on: 786-0 renal
[55] = tested on: PC-3 prostate
[56] = tested on: OVCAR-5 ovarian
[57] = tested on: LOX IMVI melanoma
[58] = tested on: K-562 leukemia

CN1CCN(Cc2ccc(NC(=O)c3cncc(C#Cc4cnc5ccc(N6CCN(C)CC6)nn45)c3)cc2C(F)(F)F)CC1
GI50 [1]: 1760 nM
TGI [1]: 3.63 µM
GI50 [2]: 2290 nM
TGI [2]: 4.63 µM
GI50 [3]: 781 nM
TGI [3]: 2920 nM
GI50 [4]: 1230 nM
TGI [4]: 3.01 µM
GI50 [5]: 751 nM
TGI [5]: 2350 nM
GI50 [6]: 1430 nM
TGI [6]: 3.37 µM
GI50 [7]: 414 nM
TGI [7]: 1740 nM
GI50 [8]: 1750 nM
TGI [8]: 4.16 µM
GI50 [9]: 1660 nM
TGI [9]: 3.32 µM
GI50 [10]: 1530 nM
TGI [10]: 2910 nM
GI50 [11]: 2180 nM
TGI [11]: 4.11 µM
GI50 [12]: 1870 nM
TGI [12]: 4.05 µM
GI50 [13]: 1490 nM
TGI [13]: 2950 nM
GI50 [14]: 2060 nM
TGI [14]: 7.02 µM
GI50 [15]: 1440 nM
TGI [15]: 2880 nM
GI50 [16]: 1050 nM
TGI [16]: 2620 nM
GI50 [17]: 1810 nM
TGI [17]: 3.64 µM
GI50 [18]: 2150 nM
TGI [18]: 4.11 µM
GI50 [19]: 1150 nM
TGI [19]: 2560 nM
GI50 [20]: 10.7 µM
TGI [20]: 23.3 µM
GI50 [21]: 1710 nM
TGI [21]: 6.57 µM
GI50 [22]: 2120 nM
TGI [22]: 6.99 µM
GI50 [23]: 436 nM
TGI [23]: 10.7 µM
GI50 [24]: 2060 nM
TGI [24]: 4.29 µM
GI50 [25]: 1580 nM
TGI [25]: 3.63 µM
GI50 [26]: 18 µM
TGI [26]: 41.8 µM
GI50 [27]: 1590 nM
TGI [27]: 2940 nM
GI50 [28]: 11.9 µM
TGI [28]: 24.4 µM
GI50 [29]: 1620 nM
TGI [29]: 3.91 µM
GI50 [30]: 1330 nM
TGI [30]: 3.51 µM
GI50 [31]: 1370 nM
TGI [31]: 2960 nM
GI50 [32]: 2570 nM
TGI [32]: 11.2 µM
GI50 [33]: 1410 nM
TGI [33]: 3.06 µM
GI50 [34]: 1580 nM
TGI [34]: 3.24 µM
GI50 [35]: 1440 nM
TGI [35]: 2960 nM
GI50 [36]: 1330 nM
TGI [36]: 2620 nM
GI50 [37]: 2050 nM
TGI [37]: 7.41 µM
GI50 [38]: 1340 nM
TGI [38]: 8.48 µM
GI50 [39]: 1470 nM
TGI [39]: 2980 nM
GI50 [40]: 14.5 µM
TGI [40]: 27.8 µM
GI50 [41]: 15 µM
TGI [41]: 30.7 µM
GI50 [42]: 29.2 nM
TGI [42]: 1390 nM
GI50 [43]: 1640 nM
TGI [43]: 3.05 µM
GI50 [44]: 4.98 µM
TGI [44]: 18.8 µM
GI50 [45]: 1180 nM
TGI [45]: 3.43 µM
GI50 [46]: 835 nM
TGI [46]: 2400 nM
GI50 [47]: 1300 nM
TGI [47]: 2840 nM
GI50 [48]: 2130 nM
TGI [48]: 3.61 µM
GI50 [49]: 1670 nM
TGI [49]: 3.28 µM
GI50 [50]: 1940 nM
TGI [50]: 6.47 µM
GI50 [51]: 3.75 µM
TGI [51]: 14.5 µM
GI50 [52]: 786 nM
TGI [52]: 2080 nM
GI50 [53]: 1530 nM
TGI [53]: 3.2 µM
GI50 [54]: 1550 nM
TGI [54]: 3.11 µM
GI50 [55]: 1660 nM
TGI [55]: 5.1 µM
GI50 [56]: 1830 nM
TGI [56]: 4.22 µM
GI50 [57]: 1160 nM
TGI [57]: 2420 nM
GI50 [58]: 57.6 nM
TGI [58]: 1630 nM
